Test results published in the supplement of paper PMC10331698.
± gives the standard deviation of the averaged measurements.

How the values were obtained:
Experiment in all cases: level (log10 ratio to DMSO vehicle control); higher = higher biomarker level / cell amount than vehicle control
Conditions in all cases: in DMSO
[1] = compound: COC(=O)CCC(F)(F)C(F)(F)C(F)(F)C(F)(F)F [Methyl 2H,2H,3H,3H-perfluoroheptanoate]
Procedure: (§1)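 BioMAP Diversity Plus panel of 12 human primary cell co-culture systems (3C, 4H, LPS, SAg, BT, BF4T, BE3C, CASM3C, HDF3CGF, KF3CT, MyoF, Mphg). Compounds were added 1 h before stimulation and left for 24 h (MyoF 48 h; BT 72 h for soluble read-outs or 6 d for IgG). Biomarkers were read by ELISA, cytotoxicity by SRB, PBMC viability and proliferation by Alamar Blue. Each well value was divided by the mean of 8 DMSO control wells on the same plate and log10 transformed; duplicate blinded samples were tested at 4 concentrations.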

[2] = compound: FC(F)C(F)(F)COCC1CO1 [((2,2,3,3-Tetrafluoropropoxy)methyl)oxirane]
Procedure: as §1

[3] = compound: C=CC(=O)OCC(F)(F)C(F)(F)C(F)(F)C(F)(F)C(F)(F)C(F)(F)C(F)(F)F [1H,1H-Perfluorooctyl acrylate]
Procedure: as §1

[4] = compound: O=C(O)C(F)(F)C(F)(F)C(F)(F)C(F)(F)C(F)(F)C(F)(F)C(F)(F)C(F)F [9-H-Perfluorononanoic acid]
Procedure: as §1

[5] = compound: FC(F)(F)C(F)(C(F)(F)F)C(F)(F)C(F)(F)CC1CO1 [3-(Perfluoro-3-methylbutyl)-1,2-propenoxide]
Procedure: as §1

Perfluoro-1-iodohexane = compound: FC(F)(F)C(F)(F)C(F)(F)C(F)(F)C(F)(F)C(F)(F)I [Perfluoro-1-iodohexane]
Procedure: as §1

Perfluorodecanoic acid = compound: O=C(O)C(F)(F)C(F)(F)C(F)(F)C(F)(F)C(F)(F)C(F)(F)C(F)(F)C(F)(F)C(F)(F)F [Perfluorodecanoic acid]
Procedure: as §1

Test System | level (log10) ([1]; 6700 nM) | level (log10) ([1]; 20000 nM) | level (log10) ([1]; 60000 nM) | level (log10) ([2]; 6700 nM) | level (log10) ([2]; 20000 nM) | level (log10) ([2]; 60000 nM) | level (log10) ([3]; 6700 nM) | level (log10) ([3]; 20000 nM) | level (log10) ([3]; 60000 nM) | level (log10) ([4]; 6700 nM) | level (log10) ([4]; 20000 nM) | level (log10) ([4]; 60000 nM) | level (log10) ([5]; 6700 nM) | level (log10) ([5]; 20000 nM) | level (log10) (Perfluoro-1-iodohexane; 6700 nM) | level (log10) (Perfluoro-1-iodohexane; 20000 nM) | level (log10) (Perfluoro-1-iodohexane; 60000 nM) | level (log10) (Perfluorodecanoic acid; 6700 nM) | level (log10) (Perfluorodecanoic acid; 20000 nM)
BT:sIL-17A | -0.0765 ± 0.18 | 0.001 ± 0.11 | -0.0075 ± 0.064 | 0.0715 ± 0.032 | -0.008 ± 0.064 | -0.115 ± 0.03 | -0.242 ± 0.26 | -0.141 ± 0.05 | -0.409 ± 0.18 | 0.0095 ± 0.087 | -0.02 ± 0.024 | -0.126 ± 0.0099 | 0.135 ± 0.0092 | -0.0585 ± 0.032 | -0.004 ± 0.018 | -0.0905 ± 0.12 | -0.089 ± 0.2 | -0.0525 ± 0.0092 | -0.0075 ± 0.17
BT:sIL-17F | 0.014 ± 0.12 | -0.0295 ± 0.052 | -0.024 ± 0.068 | -0.0295 ± 0.12 | 0.001 ± 0.13 | 0.0005 ± 0.061 | -0.0975 ± 0.16 | -0.324 ± 0.11 | -0.372 ± 0.063 | 0.0055 ± 0.0064 | 0.0945 ± 0.035 | 0.031 ± 0.0085 | 0.0485 ± 0.028 | -0.0345 ± 0.093 | 0.0035 ± 0.015 | 0.041 ± 0.12 | 0.0815 ± 0.061 | 0.019 ± 0.016 | 0.0345 ± 0.13
BT:sTNF-alpha | 0.0125 ± 0.042 | -0.105 ± 0.055 | 0.0165 ± 0.12 | 0.0865 ± 0.025 | 0.0615 ± 0.023 | -0.0195 ± 0.0021 | -0.029 ± 0.027 | -0.0585 ± 0.044 | -0.19 ± 0.043 | 0.032 ± 0.069 | 0.076 ± 0.014 | 0.032 ± 0.04 | 0.0545 ± 0.076 | 0.0925 ± 0.093 | 0.009 ± 0.031 | -0.0095 ± 0.14 | -0.0015 ± 0.16 | 0.0625 ± 0.047 | 0.018 ± 0.0099
LPS:CCL2/MCP-1 | -0.011 ± 0.013 | -0.013 ± 0.0071 | -0.0065 ± 0.00071 | 0.006 ± 0.0085 | -0.007 ± 0.0099 | 0.01 ± 0.013 | -0.003 ± 0.017 | -0.0045 ± 0.005 | 0.005 ± 0.0099 | -0.0165 ± 0.005 | -0.0055 ± 0.0021 | 0.0405 ± 0.025 | -0.01 ± 0.0057 | 0.005 ± 0.024 | -0.0025 ± 0.005 | -0.009 ± 0.0014 | 0.0015 ± 0.032 | -0.0005 ± 0.012 | -0.0015 ± 0.0064
LPS:CD40 | -0.017 ± 0.041 | 0.003 ± 0.051 | -0.015 ± 0.078 | 0.009 | -0.006 ± 0.0057 | -0.012 ± 0.017 | 0.0745 ± 0.063 | 0.039 ± 0.071 | -0.0125 ± 0.097 | -0.027 ± 0.023 | -0.033 ± 0.016 | -0.0655 ± 0.021 | -0.0195 ± 0.015 | -0.007 ± 0.034 | 0.058 ± 0.0014 | 0.0375 ± 0.005 | -0.0135 ± 0.061 | -0.015 ± 0.16 | -0.0235 ± 0.12
LPS:CD62E/E-Selectin | -0.0315 ± 0.0021 | -0.034 ± 0.0014 | 0.0015 ± 0.013 | 0.012 ± 0.02 | 0.0055 ± 0.033 | 0.0145 ± 0.033 | 0.0005 ± 0.0021 | 0.0095 ± 0.0092 | 0.0115 ± 0.011 | 0.0005 ± 0.042 | 0.003 ± 0.0071 | 0.0525 ± 0.0035 | 0.0165 ± 0.0035 | 0.0245 ± 0.025 | -0.0115 ± 0.0035 | -0.0175 ± 0.011 | 0.015 ± 0.023 | -0.0115 ± 0.00071 | -0.0205 ± 0.015
LPS:CD69 | -0.019 ± 0.047 | 0.0115 ± 0.042 | -0.01 ± 0.052 | 0.0005 ± 0.022 | -0.003 ± 0.0014 | 0.012 ± 0.041 | 0.0025 ± 0.0021 | -0.0095 ± 0.0064 | -0.0305 ± 0.005 | -0.018 ± 0.0028 | -0.0275 ± 0.039 | -0.0575 ± 0.0035 | -0.023 ± 0.027 | -0.004 ± 0.0057 | -0.0185 ± 0.0064 | -0.0025 ± 0.0035 | -0.032 ± 0.0099 | -0.03 ± 0.011 | -0.048 ± 0.0099
